In paper PMC9304066, “H2S biogenesis by cystathionine beta-synthase: mechanism of inhibition by aminooxyacetic acid and unexpected role of serine” (Cellular and Molecular Life Sciences: CMLS, 2022):
Several values for one entry are separate records, joined by “and”; a condition that tells them apart may be missing. Equal entries are not always repeated.

Legend:
tScCBS [1] = biological target: T1, tScCBS (Saccharomyces cerevisiae, UniProt P32582); assay: Kinetics of AOAA binding to tScCBS and displacement by substrate, followed by absorption spectra; settings: in the presence of Cys, data not shown
T1 construct: 6xHis (C); made in house
T1 sequence (P32582 1-345): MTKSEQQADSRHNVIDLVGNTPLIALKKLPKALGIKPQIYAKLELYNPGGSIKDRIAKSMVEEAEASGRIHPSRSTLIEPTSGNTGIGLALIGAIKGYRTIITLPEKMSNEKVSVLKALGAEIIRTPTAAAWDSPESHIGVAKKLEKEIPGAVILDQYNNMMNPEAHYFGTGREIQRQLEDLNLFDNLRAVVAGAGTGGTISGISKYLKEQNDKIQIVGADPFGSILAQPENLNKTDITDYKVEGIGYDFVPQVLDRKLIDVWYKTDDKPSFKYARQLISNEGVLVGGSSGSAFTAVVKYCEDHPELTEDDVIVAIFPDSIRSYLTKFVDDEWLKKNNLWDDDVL
Description: (§1) UV − Vis and fluorescence spectroscopy. Absorption spectra were collected on a Tecan Infinite M200 Pro spectrophotometer in a buffer containing 50 mM Tris–HCl pH 8.5, 20 mM NaCl and 0.5 mM tris(2-carboxyethyl)phosphine (TCEP). All the spectra were carried out with a protein concentration of 1 mg/mL with a 1 cm path-length quartz cuvette in a total volume of 150 µL. tScCBS was titrated directly in a cuvette by successive additions of different concentrations of AOAA, Ser and Cys, respectively, and spectra were recorded between 240 and 600 nm after an incubation time of 3 min at RT. Fluorescence emission spectra were collected under the same conditions upon PLP excitation at 410 nm. Blank spectra were subtracted from sample spectra.
Fig. 2 Spectroscopic rescue of AOAA-inhibited tScCBS by Ser. A Changes in the absorption spectra of tScCBS upon addition of 20 µM AOAA (cyan lines) followed for 1 h. Subsequently, 1 mM Ser (gray lines) was added and spectral changes were followed for additional 1 h. B Representative kinetic fitting of AOAA binding to tScCBS followed at 412 nm. C Representative kinetic fitting of AOAA displacement from tScCBS by Ser by following changes at 370 nm and 460 nm. The kinetic parameters of the observed processes are shown as insets in panels B and C. Far-UV (D) and near-UV (E) CD spectra of tScCBS (black), tScCBS complexed with 20 µM AOAA (cyan) or 1 mM Ser (magenta) and tScCBS complexed with 20 µM AOAA followed by 1 h incubation with 1 mM Ser (green).

HsCBS [2] = biological target: T2, HsCBS (Homo sapiens, UniProt P35520, DEL516-525); assay: CBL-LDH coupled-coupled CBS assay, HsCBS; format: biochemical; settings: CBL-LDH coupled-coupled assay
T2 construct: purchased GenScript
T2 sequence (P35520 with tags, fused parts or gaps DEL516-525): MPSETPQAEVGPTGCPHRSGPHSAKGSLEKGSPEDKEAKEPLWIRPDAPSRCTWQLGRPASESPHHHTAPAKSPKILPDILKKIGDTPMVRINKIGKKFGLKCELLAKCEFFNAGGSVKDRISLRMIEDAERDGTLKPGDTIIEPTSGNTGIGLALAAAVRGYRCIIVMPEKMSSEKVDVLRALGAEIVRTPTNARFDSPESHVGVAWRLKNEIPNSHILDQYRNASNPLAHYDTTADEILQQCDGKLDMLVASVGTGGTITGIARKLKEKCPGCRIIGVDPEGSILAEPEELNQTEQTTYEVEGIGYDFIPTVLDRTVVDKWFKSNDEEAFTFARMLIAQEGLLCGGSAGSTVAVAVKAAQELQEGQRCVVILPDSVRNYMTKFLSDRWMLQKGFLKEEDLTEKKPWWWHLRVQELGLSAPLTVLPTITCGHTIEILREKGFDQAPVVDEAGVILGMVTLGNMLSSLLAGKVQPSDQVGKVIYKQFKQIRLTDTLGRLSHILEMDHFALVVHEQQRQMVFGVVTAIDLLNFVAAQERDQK
Description: (§2) CBS coupled-coupled assay. CBS canonical activity utilizing Ser and Hcy was determined using cystathionine beta-lyase (CBL) and lactate-dehydrogenase (LDH) coupled-coupled assay as described previously with a few modifications. Native L-LDH from rabbit muscle was purchased from Sigma (catalog no. L2500) and recombinant CBL was purchased from Creative Enzymes (catalog no. NATE-1146). In a final volume of 150 µL, the reaction mixture contained 50 mM Tris–HCl pH 8.9, 20 µM PLP, 500 µM NADH, 1.3 µM LDH, 0.1 µM CBL, 0–20 mM Ser (or 0–50 mM Cys) and 500 ng of tScCBS or HsCBS. Assays with HsCBS were carried out in the absence or presence of 500 µM CBS allosteric activator S-adenosylmethionine (SAM). The reaction was triggered by the addition of 2 mM Hcy and the oxidation of NADH to NAD^+ was followed by monitoring the decrease in absorbance at 340 nm over time (ε340 = 6220 M^−1.cm^−1). […] All measurements were performed in triplicates using Tecan Infinite 200 PRO microplate reader. Kinetic data were analyzed using GraphPad Prism software.

tScCBS [3] = biological target: T1, tScCBS; assay: CBL-LDH coupled-coupled CBS assay, tScCBS; format: biochemical; settings: tScCBS; CBL-LDH coupled-coupled assay
Description: as §2

tScCBS [4] = biological target: T1, tScCBS; assay: UV-Vis absorption titration of tScCBS (dissociation constants); format: binding; settings: tScCBS 1 mg/mL, pH 8.5; decrease in absorbance at 412 nm (AOAA), increase at 460 nm (Ser) or 440 nm (Cys); 3 min incubation; read-out: Dissociation constant Kd (UV-Vis absorption)
Description: (§3) CBS enzymes. Recombinant truncated Saccharomyces cerevisiae CBS lacking the C-terminal regulatory domain (residues 346–507) and carrying the C-terminal 6xHis tag (tScCBS) was prepared as described previously. Engineered recombinant Homo sapiens CBS lacking a loop protruding from the central β-strand of the CBS2 domain corresponding to the residues 516–525 (HsCBS; described in detail in [21]) was purchased from GenScript.
as §1

tScCBS [5] = biological target: T1, tScCBS; assay: Fluorescence emission titration of tScCBS (PLP excitation at 410 nm); format: binding; settings: tScCBS 1 mg/mL, pH 8.5; decrease in emission at 520 nm, excitation 410 nm; read-out: Dissociation constant Kd (fluorescence)
Description: as §3, §1

tScCBS [6] = biological target: T1, tScCBS; assay: CBS H2S production assay (AzMC fluorometric), tScCBS; format: biochemical; settings: tScCBS; AzMC assay
Description: (§4) CBS H2S production assay. H2S-producing activity of CBS, utilizing Cys and Hcy, was determined using a fluorometric assay employing the H2S-selective fluorescent probe 7-azido-4-methylcoumarin (AzMC) as described previously. The reaction mixture in a total volume of 200 µL contained 50 mM Tris–HCl pH 8.6, 5 μM PLP, 2 mM Hcy, 10 μM AzMC and 500 ng tScCBS or HsCBS. The plate was incubated for 10 min at 37°C and the enzymatic activity was triggered by adding 0–50 mM Cys. The fluorescence of the mixtures at 450 nm (excited at 365 nm) was followed for 2 h at 37°C. All measurements were performed in triplicates using Tecan Infinite 200 PRO microplate reader. Kinetic data were analyzed using GraphPad Prism software.

HsCBS [7] = biological target: T2, HsCBS; assay: CBS H2S production assay (AzMC fluorometric), HsCBS; format: biochemical; settings: AzMC assay
Description: as §4

In the case of `N[C@@H](CS)C(=O)O` [Cys, cysteine], the “Displacement of AOAA from the tScCBS active site” value (tScCBS [1]) is reported as “did not occur”, the Vmax (HsCBS [2]; HsCBS + SAM) is reported as 97.2 ± 7.1 µmol/h/mg and the kcat (HsCBS [2]; HsCBS + SAM) is reported as 1.66 ± 0.03 s⁻¹. The Vmax (HsCBS [2]; HsCBS – SAM) was 20.1 ± 1.7 µmol/h/mg, the kcat (HsCBS [2]; HsCBS – SAM) was 0.34 ± 0.02 s⁻¹ and the Vmax (tScCBS [3]) was 161.5 ± 4.5 µmol/h/mg. For the same compound, the kcat (tScCBS [3]) was 1.7 ± 0.1 s⁻¹, the Kd (tScCBS [4]) was ~58 µM and 57.3 µM and the Kd (tScCBS [5]) was 48.9 ± 14.6 µM. It also gave a Vmax (tScCBS [6]) of 317.0 ± 24.1 µmol/h/mg, a kcat (tScCBS [6]) of 3.4 ± 0.3 s⁻¹ and a Vmax (HsCBS [7]; HsCBS + SAM) of 113.3 ± 4.0 µmol/h/mg. It also gave a kcat (HsCBS [7]; HsCBS + SAM) of 1.93 ± 0.06 s⁻¹, a Vmax (HsCBS [7]; HsCBS – SAM) of 30.8 ± 1.9 µmol/h/mg and a kcat (HsCBS [7]; HsCBS – SAM) of 0.52 ± 0.04 s⁻¹.
